Here are results for two compounds from patent US10993895B2, “Composition obtainable by passing singlet oxygen through extra virgin olive oil” (priority 2017, dated 2021).

One data set deals with MRSA 10. Put plainly: Infected incised wound of rats, MRSA 10. The class given is in vivo, Rattus Norvegicus. As to conditions: wound infected with MRSA 10; 6 rats. Here is the method: (§1) Effectivity Study on Infected Incised Wound of Rattus Norvegicus Experimental Research on Animal Testing
(§2) Method: Solution Preparation Protocol for Infected Incised Wound
(§3) Preparing the solution with these following steps:
(§4) 1. Bacteria from the infected patient clinical isolate is planted on the media by streaking at for quadrant
(§5) 2. The isolated bacteria in separated colonies are dissolved in the tube that contain pz liquid
(§6) 3. In order to analyze the cloudness level of the solution on the tube, nephelometer is used to figure the cloudness level to 0.50 McFarland.
(§7) 4. 0.5 McFarland is equal to 1.5×10^8 CFU bacteria.
(§8) Infected Incised Wound Preparation Protocol on Animals
(§9) 1. Preparation of animals:
(§10) 1. Inject the animals with anesthesia drug containing ketamine hydrochloride, 0.1-0.2 ml
(§11) 2. Place them back into the cage while waiting them to be fully unconscious as the effect of the drug.
(§12) 3. Shave the back hair of the animals with razor blade.
(§13) 4. Give antiseptics, i.e. povidone iodine and alcohol. Wait for three minutes.
(§14) 5. Make a 2-cm long incision on the animal's back. Should any bleeding occurred, wipe with cotton.
(§15) 6. Swipe the incised spot with the bacteria solution using a cotton bud.
(§16) 7. Cover the spot with gauze bandage and stick it with plaster.
8. […]
(§17) The tissue's processing is started after the fixation completed. […] Remove from the oven and leave it in room temperature, then the tissue is ready to dye. […]

In a further data set the test system is MRSA 6. Put plainly: Infected incised wound of rats, MRSA 6. Format: in vivo, Rattus Norvegicus. As to conditions: wound infected with MRSA 6; 6 rats. Here is the method: as §1, §2, §3, §4, §5, §6, §7, §8, §9, §10, §11, §12, §13, §14, §15, §16
8. […]
as §17

The test system of data set [1] is Incised Wound Rattus Norvegicus. Put plainly: Acute toxicity study on incised wound healing in rats. Details: Neo vascularization: key to the marks not given beside the values. Format: in vivo. Here is the method: Research Protocol: Acute Toxicity Study on the Incised Wound healing Rattus Norvegicus In Vivo research on animals
as §9
1. Inject the animals with anesthesia drug containing ketamine hydrochloride, 0.1-0.2 ml as illustrated in 101 of FIG. 1.
2. Place them back into the cage while waiting them fully unconscious as the effect of the drug.
as §12
4. Give antiseptics, i.e. povidone iodine and alcohol. Wait for three minutes as illustrated in 102 of FIG. 1.
5. Make a 2-cm long incision on the animal's back as illustrated in 103 of FIG. 1. Should any bleeding occurred, wipe with cotton.
6. Apply cotton bud ton the incision spot.
7. Cover the spot with gauze bandage and stick it with plaster as illustrated in 104 of FIG. 1.
8. Place the animal back in to the cage.
2. Fixation Tissue Protocol
The skin organs from treatment and control group are taken after the incision, then put them to the bottles containing fixation solution, and give labels. The intensions of the fixation are:
3. Tissue Processing Protocol/Paraffin Block
The tissue's processing is started after the fixation completed. The steps of this process are dehydration, clearing, and impregnation/embedding. […] Afterward, do the clearing by place the tissue into xylol. Then, do the impregnation/embedding by using paraffin. The detail of this process is as follows: After the fixation is completed, the tissues are placed into the following solution, consecutively. 1. Alcohol 70%: - 2. Alcohol 80% 1 hour 3. Alcohol 95%: 2 hour 4. Alcohol 95%: 1 hour 5. Alcohol 100%: 1 hour 6. Alcohol 100%: 1 hour 7. Alcohol 100%: 1 hour 8. Xylol: 1 hour 9. Xylol: 1 hour 10. Xylol: 2 hour 11. Paraffin (56-58° C.): 2 hour 12. Paraffin (56-58° C.) 2 hour 13. Paraffin (56-58° C.) 2 hour
4. Tissue Slicing and Attaching Process on object glass Protocol.
5. Hematoxilin Eosin Dyeing Protocol
The steps of HE dyeing method are:
This research use 24 Rats divided into 4 groups of treatment; they are Vaseline, Sibro, Gentamicin and Test. Composition. Each group has 6 rats.
2. […] After then stopped the bleeding, applied Vaseline, Sibro, Gentamicin and Test Composition to each group. Application of Vaseline (201), Sibro (202), Gentamicin (203) and Test Composition (204) are illustrated in FIG. 2.
There are 4 parameters in observing incised wound microscopically, they are Epithelization, Fibroplasia, Neovascularization, and scar.

[2] abbreviates: incised wound, microscopic (HE), after 7 days.

With `C/C(=C\C(=O)OCCCCCCCCC(=O)O)C[C@@H]1OC[C@H](C[C@@H]2O[C@H]2[C@@H](C)[C@H](C)O)[C@@H](O)[C@H]1O` [mupirocine, Mupirocin], the “Dead Rats” value with MRSA 10 and with MRSA 6 was 0 each time. The Survival in the data set with MRSA 10 and in the data set with MRSA 6 was 6 each time.

Take Gentamicin [Gentamisin]: the “Wound condition on day −7 (macroscopic)” value in data set [1] (incised wound, macroscopic condition) is reported as “Closing (with 1 granulation)”. For the same compound, in data set [1] (setting [2]), the Epitheliazation result is “+”, the Fibroplasia result is on record as “+”, the Neo vascularization result is reported as “++” and the Scar result is listed as “+”. The “Dead Rats” value in data set [1] (substance applied on 2-cm incised wound, 6 rats per group, up to day 7) stood at 0. Further, the “Survival on day −7” value in data set [1] (substance applied on 2-cm incised wound, survivors/6 rats) was 6/6.
